In the assay the target is Human V1b receptor (Homo sapiens (Human), UniProt P47901). The experiment in a line: Binding Test for V1b Receptor ([3H]AVP, crude membrane preparation of 293FT cells). To be noted: inhibition of [3H]AVP binding (0.4 to 1 nmol/L), room temperature, 60 minutes. The procedure:
Binding Test for V1b Receptor
Human V1b receptor was transiently expressed in 293FT cells (Invitrogen). The cells were collected and then homogenated in a 15 mmol/L tris-hydrochloric acid buffer (pH 7.4 and containing 2 mmol/L magnesium chloride, 0.3 mmol/L ethylenediaminetetracetic acid, and 1 mmol/L glycol ether diaminetetraacetic acid). The resulting homogenate was centrifuged at 50,000×g at 4° C. for 20 minutes. The precipitate was resuspended in a 75 mmol/L tris-hydrochloric acid buffer (pH 7.4 and containing 12.5 mmol/L magnesium chloride, 0.3 mmol/L ethylenediaminetetracetic acid, 1 mmol/L glycol ether diaminetetraacetic acid, and 250 mmol/L sucrose) to give a crude membrane preparation, which was stored at −80° C. until the binding test was initiated. In the binding test, the crude membrane preparation was diluted with a 50 mmol/L tris-hydrochloric acid buffer (pH 7.4 and containing 10 mmol/L magnesium chloride and 0.1% bovine serum albumin) and mixed with each test compound and [^3H]AVP (final concentration: 0.4 to 1 nmol/L), followed by incubation at room temperature for 60 minutes. The test compound was serially diluted with DMSO so that it would have final concentrations of 0.01 nmol/L to 1 μmol/L at the time of mixing. After the incubation, the mixture was suction filtered through a GF/C filter that was preliminarily impregnated with 0.3% polyethyleneimine. The GF/C filter was dried and after adding a scintillator, the residual radioactivity on the filter was measured using TopCount (PerkinElmer Inc.). The radioactivity in the presence of unlabeled AVP at […] was defined as 0%, and the radioactivity in the absence of unlabeled AVP was defined as 100%. A dose-response curve was plotted from radio activities in the presence of a test compound at various concentrations, and the 50% inhibitory concentration (IC50 value) of the test compound was calculated.

Human V1b receptor, sequence (P47901 whole entry): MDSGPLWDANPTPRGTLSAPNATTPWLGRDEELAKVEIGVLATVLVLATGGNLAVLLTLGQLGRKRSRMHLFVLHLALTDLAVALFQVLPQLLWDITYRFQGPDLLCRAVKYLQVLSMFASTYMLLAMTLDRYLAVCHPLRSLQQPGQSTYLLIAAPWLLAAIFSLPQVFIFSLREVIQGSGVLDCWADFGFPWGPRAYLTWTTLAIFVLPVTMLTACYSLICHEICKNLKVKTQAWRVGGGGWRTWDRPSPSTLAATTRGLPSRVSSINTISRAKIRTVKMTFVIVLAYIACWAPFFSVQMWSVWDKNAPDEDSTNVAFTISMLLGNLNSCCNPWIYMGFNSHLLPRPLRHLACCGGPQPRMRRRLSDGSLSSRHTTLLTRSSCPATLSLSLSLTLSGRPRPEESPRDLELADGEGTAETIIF

As for `COc1cccc(-c2nc(-c3ccc(CCN4C5CCC4COC5)cc3)cn2CC(=O)NC(C)C)c1` [Example A-42, 2-[2-(3-methoxyphenyl)-4-{4-[2-(3-oxa-8-azabicyclo[3.2.1]oct-8-yl)ethyl]phenyl}-1H-imidazol-1-yl]-N-(propan-2-yl)acetamide], the IC50 was determined as 6.3 nM. This counts as single-digit nanomolar.

`CC(C)NC(=O)Cn1cc(-c2ccc(CCN3CCOCC3)cc2F)nc1-c1cccc(Cl)c1` [Example A-43, 2-[2-(3-chlorophenyl)-4-{2-fluoro-4-[2-(morpholin-4-yl)ethyl]phenyl}-1H-imidazol-1-yl]-N-(propan-2-yl)acetamide] registered an IC50 of 0.49 nM.

In turn, `CC(C)NC(=O)Cn1cc(-c2ccc(CC(C)N3CCOCC3)cc2)nc1-c1cccc(Cl)c1` (stereo not shown) [Example A-44, 2-[2-(3-chlorophenyl)-4-{4-[2-(morpholin-4-yl)propyl]phenyl}-1H-imidazol-1-yl]-N-(propan-2-yl)acetamide] yielded an IC50 of 0.16 nM.

`CC(C)NC(=O)Cn1cc(-n2ccc(CCN3CCOCC3)cc2=O)nc1-c1cccc(Cl)c1` [Example A-45, 2-[2-(3-chlorophenyl)-4-{4-[2-(morpholin-4-yl)ethyl]-2-oxopyridin-1(2H)-yl}-1H-imidazol-1-yl]-N-(propan-2-yl)acetamide] came in with an IC50 of 34 nM.

The compound `CC(C)NC(=O)Cn1cc(N2CCN(CCN3CCOCC3)CC2=O)nc1-c1cccc(Cl)c1` [Example A-46, 2-[2-(3-chlorophenyl)-4-{4-[2-(morpholin-4-yl)ethyl]-2-oxopiperazin-1-yl}-1H-imidazol-1-yl]-N-(propan-2-yl)acetamide] registered an IC50 of 100 to 1000 nM.

For the compound `CC(C)NC(=O)Cn1cc(C(=O)NC2CCC(N3CCOCC3)CC2)nc1-c1cccc(Cl)c1` (stereo not shown) [Example A-47, 2-(3-chlorophenyl)-N-[4-(morpholin-4-yl)cyclohexyl]-1-[2-oxo-2-(propan-2-ylamino)ethyl]-1H-imidazole-4-carboxamide], the IC50 lay in the range of 100 to 1000 nM.

In turn, `CC(C)NC(=O)Cn1cc(C(=O)N(C)C2CCC(N3CCOCC3)CC2)nc1-c1cccc(Cl)c1` (stereo not shown) [Example A-48, 2-(3-chlorophenyl)-N-methyl-N-[4-(morpholin-4-yl)cyclohexyl]-1-[2-oxo-2-(propan-2-ylamino)ethyl]-1H-imidazole-4-carboxamide] came in with an IC50 of 100 to 1000 nM.

Consider `CC(C)NC(=O)Cn1cc(C(=O)N2CCC(CCN3CCOCC3)C2)nc1-c1cccc(Cl)c1` (stereo not shown) [Example A-49, 2-[2-(3-chlorophenyl)-4-({3-[2-(morpholin-4-yl)ethyl]pyrrolidin-1-yl}carbonyl)-1H-imidazol-1-yl]-N-(propan-2-yl)acetamide], for which the IC50 lay within 100 to 1000 nM.

Take `CC(C)NC(=O)Cn1nc(-c2ccc(CCN3C4CCC3COC4)cc2)nc1-c1cccc(Cl)c1` [Example B-01, 2-[5-(3-chlorophenyl)-3-{4-[2-(3-oxa-8-azabicyclo[3.2.1]oct-8-yl)ethyl]phenyl}-1H-1,2,4-triazol-1-yl]-N-(propan-2-yl)acetamide]: the IC50 was found to be 1.4 nM.

On to `CC(C)NC(=O)Cn1nc(-c2ccc(CN3CCN(C)CC3)cc2)nc1-c1cccc(Cl)c1` [Example B-03, 2-[5-(3-chlorophenyl)-3-{4-[(4-methylpiperazin-1-yl)methyl]phenyl}-1H-1,2,4-triazol-1-yl]-N-(propan-2-yl)acetamide], for which the IC50 is 100 to 1000 nM.

As for `CC(C)NC(=O)Cn1nc(-c2ccc(CCN3C4CCC3COC4)cn2)nc1-c1cccc(Cl)c1` [Example B-04, 2-[5-(3-chlorophenyl)-3-{5-[2-(3-oxa-8-azabicyclo[3.2.1]oct-8-yl)ethyl]pyridin-2-yl}-1H-1,2,4-triazol-1-yl]-N-(propan-2-yl)acetamide], the IC50 was found to be 7.4 nM.

In the case of `COc1cccc(-c2nc(-c3ccc(CCN4C5CCC4COC5)cn3)nn2CC(=O)NC(C)C)c1` [Example B-05, 2-[5-(3-methoxyphenyl)-3-{5-[2-(3-oxa-8-azabicyclo[3.2.1]oct-8-yl)ethyl]pyridin-2-yl}-1H-1,2,4-triazol-1-yl]-N-(propan-2-yl)acetamide], the IC50 came out at 11 nM. The IC50 values of the last two compounds are within 1.5-fold of each other.

Take `COc1cc(-c2nc(-c3ccc(CCN4C5CCC4COC5)cn3)nn2CC(=O)NC(C)C)ccc1F` [Example B-06, 2-[5-(4-fluoro-3-methoxyphenyl)-3-{5-[2-(3-oxa-8-azabicyclo[3.2.1]oct-8-yl)ethyl]pyridin-2-yl}-1H-1,2,4-triazol-1-yl]-N-(propan-2-yl)acetamide]: the IC50 is 3.3 nM.

The compound `COc1cccc(-c2nc(-c3ccc(CCN4C5CCC4COC5)cn3)nn2CC(=O)NC(C)(C)C)c1` [Example B-07, N-tert-butyl-2-[5-(3-methoxyphenyl)-3-{5-[2-(3-oxa-8-azabicyclo[3.2.1]oct-8-yl)ethyl]pyridin-2-yl}-1H-1,2,4-triazol-1-yl]acetamide] had an IC50 of 4.3 nM.

`CC(C)NC(=O)Cn1nc(-c2ccc(CCN3C4CCC3COC4)cn2)nc1-c1ccc(F)c(Cl)c1` [Example B-08, 2-[5-(3-chloro-4-fluorophenyl)-3-{5-[2-(3-oxa-8-azabicyclo[3.2.1]oct-8-yl)ethyl]pyridin-2-yl}-1H-1,2,4-triazol-1-yl]-N-(propan-2-yl)acetamide] registered an IC50 of 2.8 nM.

In the case of `CC(C)(C)NC(=O)Cn1nc(-c2ccc(CCN3C4CCC3COC4)cn2)nc1-c1cccc(Cl)c1` [Example B-09, N-tert-butyl-2-[5-(3-chlorophenyl)-3-{5-[2-(3-oxa-8-azabicyclo[3.2.1]oct-8-yl)ethyl]pyridin-2-yl}-1H-1,2,4-triazol-1-yl]acetamide], the IC50 was determined as 2.2 nM.

The compound `CC(C)NC(=O)Cn1nc(-c2ccc(CCN3CCOCC3)cn2)nc1-c1cccc(Cl)c1` [Example B-10, 2-[5-(3-chlorophenyl)-3-{5-[2-(morpholin-4-yl)ethyl]pyridin-2-yl}-1H-1,2,4-triazol-1-yl]-N-(propan-2-yl)acetamide] showed an IC50 of 12 nM. This IC50 lies about 5.5-fold higher than the previous one.

For the compound `CC(C)(C)NC(=O)Cn1nc(-c2ccc(CCN3CCOCC3)cn2)nc1-c1cccc(Cl)c1` [Example B-11, N-tert-butyl-2-[5-(3-chlorophenyl)-3-{5-[2-(morpholin-4-yl)ethyl]pyridin-2-yl}-1H-1,2,4-triazol-1-yl]acetamide], the IC50 was 5.1 nM.

For the compound `CC(C)NC(=O)Cn1nc(-c2ccc(CCN3CCOCC3)cn2)nc1-c1ccc(F)c(Cl)c1` [Example B-12, 2-[5-(3-chloro-4-fluorophenyl)-3-{5-[2-(morpholin-4-yl)ethyl]pyridin-2-yl}-1H-1,2,4-triazol-1-yl]-N-(propan-2-yl)acetamide], the IC50 was 6.3 nM. The IC50 values of the last two compounds are within 1.5-fold of each other.

`COc1cc(-c2nc(-c3ccc(CCN4CCOCC4)cn3)nn2CC(=O)NC(C)C)ccc1F` [Example B-13, 2-[5-(4-fluoro-3-methoxyphenyl)-3-{5-[2-(morpholin-4-yl)ethyl]pyridin-2-yl}-1H-1,2,4-triazol-1-yl]-N-(propan-2-yl)acetamide] came in with an IC50 of 8.9 nM. This IC50 and that of the compound before are within 1.5-fold of each other.

In turn, `COc1cccc(-c2nc(-c3ccc(CCN4CCOCC4)cn3)nn2CC(=O)NC(C)(C)C)c1` [Example B-14, N-tert-butyl-2-[5-(3-methoxyphenyl)-3-{5-[2-(morpholin-4-yl)ethyl]pyridin-2-yl}-1H-1,2,4-triazol-1-yl]acetamide] came in with an IC50 of 6.6 nM.

`COc1cccc(-c2nc(-c3ccc(CCN4CCOCC4)cn3)nn2CC(=O)NC(C)C)c1` [Example B-15, 2-[5-(3-methoxyphenyl)-3-{5-[2-(morpholin-4-yl)ethyl]pyridin-2-yl}-1H-1,2,4-triazol-1-yl]-N-(propan-2-yl)acetamide]: the IC50 was 31 nM.

As usually defined, the IC50 is the concentration that gives 50% inhibition.

These data come from patent US9522914B2, “Azole derivative” (TAISHO PHARMACEUTICAL CO., LTD, priority 2011, dated 2016).
